Results from patent publication US4719200A, “Amino acid derivatives and antihypertensive drugs containing the same” (Ajinomoto Co., Inc., priority 1984, dated 1988).
Peptide text beside a SMILES is read from it. * marks the point of attachment. Bz = O=C(c1ccccc1)*

Test system: spontaneously hypertensive rates (SHR rats)
Experiment: Measurement of change in blood pressure (systolic, indirect, conscious rats) after one oral dose
Format: in vivo, rat
Details: for Systolic Blood Pressure, Lowest Value: after administration; for Δ Blood Pressure (systolic): lowest value minus value before administration
Procedure: The antihypertensive activities of the amino acid derivatives as prepared above were determined.
As subject animals, there were used 5 spontaneously hypertensive rates (SHR rats) which had been sufficiently trained and confirmed to be hypertensive (mode, the body weight of 400 g) per a sample.
As an instrument for measuring the blood pressure there was used Programmed Electro-Sphygmomanometer PE-300 (Narco Co., U.S.A.), and the blood pressure was indirectly measured on conscious rats.
An aqueous solution of a sample (0.05 m mole/kg) was once force-fed into the stomach by means of a […] probe. As a control, the water as deionized was fed to the same animals as above.

[1] = second table (Examples 25-43), before administration
[2] = SHR rats, single force-feeding into the stomach, 0.05 m mole/kg
[3] = SHR rats, 5 per sample, before single force-feeding into the stomach of 0.05 m mole/kg aqueous solution

Molecule	Hrs. After Admin. (of lowest systolic blood pressure value) (second table (Examples 25-43))	Systolic Blood Pressure, Lowest Value (second table (Examples 25-43))	Systolic Blood Pressure, Value Before Administration [1]	Δ Blood Pressure (systolic) (second table (Examples 25-43))	Systolic Blood Pressure, Lowest value after administration [2]	Δ Blood Pressure (systolic) [2]	Systolic Blood Pressure, Value Before Administration [3]	Hours after administration (of lowest systolic blood pressure value) [2]
CCOC(=O)N[C@H](C(=O)N1CCC[C@H]1C(=O)N1CCC[C@H]1C(=O)O)[C@@H](C)CC.[Na] [Example 30, N--ethoxycarbonyl-L-isoleucyl-L-prolyl-L-proline sodium salt]	4 h	208	224	-16	–	–	–	–
CCS(=O)(=O)N[C@@H](CCCNC(=N)N)C(=O)N1CCC[C@H]1C(=O)N1CCC[C@H]1C(=O)O [Example 41, N--ethane sulfonyl-L-arginyl-L-prolyl-L-proline]	7 h	185	204	-19	–	–	–	–
CC(=O)N[C@@H](C)C(=O)N1CCC[C@H]1C(=O)N1CCC[C@H]1C(=O)O [Example 3, N-acetyl-L-alanyl-L-prolyl-L-proline] (Ac-Ala-Pro-Pro-OH)	–	–	–	–	160 mm Hg	-41 mm Hg	–	–
O=C(O)CC[C@H](NC(=O)c1ccccc1)C(=O)N1CCC[C@H]1C(=O)N1CCC[C@H]1C(=O)O [Example 28, N--benzoyl-L-glutamyl-L-prolyl-L-proline] (Bz-Glu-Pro-Pro-OH)	8 h	196	235	-39	–	–	–	–
N-(benzylthio) thiocarbonyl-L-alanyl-L-prolyl-L-proline L-arginine salt [Example 9]	–	–	–	–	191 mm Hg	-25 mm Hg	216 mm Hg	24 h
CCS(=O)(=O)NCC(=O)N1CCC[C@H]1C(=O)N1CCC[C@H]1C(=O)O [Example 39, N--ethanesulfonyl-glycyl-L-prolyl-L-proline]	8 h	215	232	-18	–	–	–	–
N-phenylthiocarbamoyl-L-alanyl-L-prolyl-L-proline L-arginine salt [Example 18]	–	–	–	–	211 mm Hg	-13 mm Hg	224 mm Hg	24 h
CCS(=O)(=O)N[C@@H](Cc1ccccc1)C(=O)N1CCC[C@H]1C(=O)N1CCC[C@H]1C(=O)O [Example 38, N--ethanesulfonyl-L-phenylalanyl-L-prolyl-L-proline]	8 h	201	235	-34	–	–	–	–
CCS(=O)(=O)N[C@@H](CCSC)C(=O)N1CCC[C@H]1C(=O)N1CCC[C@H]1C(=O)O [Example 43, N--ethane sulfonyl-L-methionyl-L-prolyl-L-proline]	8 h	198	229	-31	–	–	–	–
C[C@H](NC(=O)c1ccco1)C(=O)N1CCC[C@H]1C(=O)N1CCC[C@H]1C(=O)O [Example 7, N-(2-furoyl)-L-alanyl-L-prolyl-L-proline]	–	–	–	–	177 mm Hg	-28 mm Hg	–	–
